The text below walks through data of ChEMBL document CHEMBL1144055, “Mathemycin B, a new antifungal macrolactone from actinomycete species HIL Y-8620959” (1999).

Holding throughout (format): functional
One experiment deals with Fusarium culmorum. Nature of the experiment: Antimicrobial activity against Fusarium culmorum assessed as drug concentration required to form 10 mm zone of inhibition by agar diffusion method. A general note: A growth-free zone around the sample is the usual read-out of agar diffusion tests.
In the next experiment the test system is Alternaria mali. The experiment in a line: Antimicrobial activity against Alternaria mali P37 assessed as drug concentration required to form 10 mm zone of inhibition by agar diffusion method.
The test system of experiment [1] is Botrytis cinerea. The experiment in a line: Antimicrobial activity against Botrytis cinerea A06 assessed as drug concentration required to form 10 mm zone of inhibition by agar diffusion method.
The subject of experiment [2] is Botrytis cinerea. Nature of the experiment: Antimicrobial activity against Botrytis cinerea DO1 assessed as drug concentration required to form 10 mm zone of inhibition by agar diffusion method.
A short description of experiment [3]: Antimicrobial activity against Pellicularia sasakii JO3 assessed as drug concentration required to form 10 mm zone of inhibition by agar diffusion method.
A further experiment has as its system Parastagonospora nodorum. The experiment in a line: Antimicrobial activity against Leptosphaeria nodorum JO2 assessed as drug concentration required to form 10 mm zone of inhibition by agar diffusion method.
In a further experiment the test system is Oculimacula yallundae. The experiment in a line: Antimicrobial activity against Pseudocercosporella herpotrichoides 008 assessed as drug concentration required to form 10 mm zone of inhibition by agar diffusion method.
The next experiment relates to Phytophthora infestans. Nature of the experiment: Antimicrobial activity against Phytophthora infestans JO8 assessed as drug concentration required to form 10 mm zone of inhibition by agar diffusion method.

As for `C/C1=C\C(C)C(O)/C(C)=C/C(O[C@H]2O[C@H](CO)[C@@H](O)[C@H](O[C@@H]3O[C@H](CO)[C@@H](O)[C@H](O)[C@@H]3O)[C@@H]2O)C(O)C(C)C(O)CC(O)CC(O)C(C)C(O)CC(O)CC(O)C(C)C(O)CC(O)CC(O[C@@H]2O[C@H](C)[C@@H](O)[C@H](N)[C@H]2O)C(C)C(C(C)CC(C)CCCCCCN)OC(=O)CCC(C)C(O)CC/C=C/C(C)C1O` (some centres undefined) [MATHEMYCIN B], the MAC with Fusarium culmorum came to 62.5 mg/L; in the experiment with Alternaria mali it was 62.5 mg/L; with Botrytis cinerea [1], 62.5 mg/L; with Botrytis cinerea [2] it was 62.5 mg/L; in experiment [3], 62.5 mg/L; in the experiment on Parastagonospora nodorum, 125 mg/L. Moreover, in the experiment on Oculimacula yallundae, the MAC turned out to be 250 mg/L.

As to MANCOZEB, the MAC in the experiment with Phytophthora infestans amounted to 62.5 mg/L.

On to maneb, for which, in the experiment with Oculimacula yallundae, the MAC was determined as 125 mg/L.
